Experiments:
Experiment in all cases: Greenhouse postemergence herbicidal effect, visual injury after 20-22 d
Format in all cases: in vivo
[1] = test system: Abutilon theophrasti (velvetleaf); details: ABUTH
Source text: (§1) Greenhouse Trial Methodology—Evaluation of Postemergence Herbicidal Effect
(§2) Seeds of the desired test plant species were planted in a 90:10% v/v (volume/volume) mixture of PRO-MIX® BX (Premier Tech Horticulture, Quakertown, Pa., USA) and PROFILE® GREENS GRADE™ (Profile Products LLC, Buffalo Grove, Ill., USA) planting mixture, which typically has a pH of 5.2 to 6.2 and an organic matter content of at least 50 percent, in plastic pots with a surface area of 103.2 square centimeters (cm^2). In some aspects, to help ensure good germination and healthy plants, a fungicide treatment and/or other chemical or physical treatment was applied. The plants were grown for 7-36 days (d) in a greenhouse with an approximate 14-hour (h) photoperiod which was maintained at about 23° C. during the day and 22° C. during the night. Nutrients and water were added on a regular basis and supplemental lighting was provided with overhead metal halide 1000-Watt lamps as necessary. The plants were employed for testing when they reached the second or third true leaf stage.
(§3) Emulsifiable concentrates of each of each pyridine carboxylate herbicide (Compound A or Compound B) were prepared at 100 grams acid equivalent per liter (g ae/L). The emulsifiable concentrates also included a safener, at 120 grams active ingredient per liter (g ai/L). An aliquot of each emulsifiable concentrate was placed in a 25 mL glass vial and diluted with an aqueous mixture of 1.25% (v/v) ACTIROB® B esterified rapeseed oil (Bayer Crop Science, Research Triangle Park, N.C., USA) or MSO® Concentrate with LECI-TECH® methylated soybean oil (Loveland Products, Loveland, Colo., USA) to obtain concentrated stock solutions at the highest application rate for each herbicide, based upon a 12 milliliter (mL) application volume at a rate of 187 liters per hectare (L/ha). The concentrated stock solutions were further diluted with an aqueous mixture of 1.25% v/v ACTIROB® B or MSO® Concentrate with LECI-TECH® to obtain stock solutions at reduced application rates for each herbicide. Spray solutions of the herbicide combinations (Compound A or Compound B plus the CBI herbicide) were prepared by adding weighed amounts or aliquots of the CBI herbicide to the stock solutions of Compound A or Compound B to form 12-mL spray solutions in two-way combinations.
(§4) The spray solutions were applied to the plant material with an overhead Mandel track sprayer equipped with 8002E nozzles calibrated to deliver 187 L/ha over an application area of 0.503 square meters (m^2) at a spray height of 18 inches (43 centimeters (cm)) above the average plant canopy. Control plants were sprayed in the same manner with the solvent blank. All pyridine carboxylate herbicide (component a) application rates are given as “g ae/ha” and all CBI herbicide (component b) application rates are given as “g ai/ha.”
(§5) The treated plants and control plants were placed in a greenhouse as described above and watered by sub-irrigation to prevent wash-off of the test compounds. After 20-22 d, the condition of the test plants as compared with that of the control plants was determined visually and scored on a scale of 0 to 100 percent where 0 corresponds to no injury and 100 corresponds to complete kill.

[2] = test system: Amaranthus retroflexus (pigweed); details: AMARE
Source text: as §1, §2, §3, §4, §5

[3] = test system: Brassica napus (spring rape); details: BRSNN
Source text: as §1, §2, §3, §4, §5

[4] = test system: Brassica napus (winter rape); details: BRSNW
Source text: as §1, §2, §3, §4, §5

[5] = test system: Chenopodium album L. (common lambsquarters); details: CHEAL
Source text: as §1, §2, §3, §4, §5

[6] = test system: Cirsium arvense (Canadian thistle); details: CIRAR
Source text: as §1, §2, §3, §4, §5

[7] = test system: Digitaria sanguinalis (large crabgrass); details: DIGSA
Source text: as §1, §2, §3, §4, §5

[8] = test system: Echinochloa crus-galli (barnyard grass); details: ECHCG
Source text: as §1, §2, §3, §4, §5

[9] = test system: Ipomoea hederacea (ivyleaf morningglory); details: IPOHE
Source text: as §1, §2, §3, §4, §5

Kochia scoparia (kochia) = details: KCHSC
Source text: as §1, §2, §3, §4, §5

[10] = test system: Lolium multiflorum (Italian rye grass); details: Table 2; LOLMU; Indaziflam 35 g/ha
Source text: as §1, §2, §3, §4, §5

[11] = test system: Matricaria chamomilla (wild chamomile); details: MATCH
Source text: as §1, §2, §3, §4, §5

[12] = test system: Polygonum convolvulus (wild buckwheat); details: POLCO
Source text: as §1, §2, §3, §4, §5

[13] = test system: Salsola kali (Russian thistle); details: SASKR
Source text: as §1, §2, §3, §4, §5

[14] = test system: Setaria faberi (giant foxtail); details: SETFA
Source text: as §1, §2, §3, §4, §5

[15] = test system: Viola tricolor (wild pansy); details: VIOTR
Source text: as §1, §2, §3, §4, §5

[16] = test system: Cyperus esculentus (nutsedge); details: Table 1; CYPES; Isoxaben 50 g/ha
Source text: as §1, §2, §3, §4, §5

[17] = test system: Euphorbia heterophylla (poinsettia); details: Table 1; EPHHL; Isoxaben 50 g/ha
Source text: as §1, §2, §3, §4, §5

Glycine max (soybean) = details: Table 1; GLXMA; Isoxaben 50 g/ha
Source text: as §1, §2, §3, §4, §5

[18] = test system: Helianthus annuus (common sunflower); details: Table 1; HELAN; Isoxaben 50 g/ha
Source text: as §1, §2, §3, §4, §5

[19] = test system: Oryza sativa (common rice); details: Table 1; ORYSA; Isoxaben 50 g/ha
Source text: as §1, §2, §3, §4, §5

[20] = test system: Rumex obtusifolius (broad-leaf dock); details: Table 1; RUMOB; Isoxaben 50 g/ha
Source text: as §1, §2, §3, §4, §5

[21] = test system: Sorghum vulgare (grain sorghum); details: Table 1; SORVU; Isoxaben 50 g/ha
Source text: as §1, §2, §3, §4, §5

[22] = test system: Stellaria media (chickweed); details: Table 1; STEME; Isoxaben 50 g/ha
Source text: as §1, §2, §3, §4, §5

Cc1ccc2c(c1)[C@H](Nc1nc(N)nc(C(C)F)n1)[C@@H](C)C2 (some centres unmarked) [Indaziflam, indaziflam, reference compound]
Obs % visual injury ([1]; Table 2, Indaziflam 35 g/ha): 60% | Obs % visual injury ([2]; Table 3, Indaziflam 35 g/ha): 23% | Obs % visual injury ([2]; Table 3, Indaziflam 70 g/ha): 33% | Obs % visual injury ([3]; Table 2, Indaziflam 35 g/ha): 30% | Obs % visual injury ([4]; Table 3, Indaziflam 35 g/ha): 45% | Obs % visual injury ([4]; Table 3, Indaziflam 70 g/ha): 45% | Obs % visual injury ([5]; Table 3, Indaziflam 35 g/ha): 10% | Obs % visual injury ([5]; Table 3, Indaziflam 70 g/ha): 10% | Obs % visual injury ([6]; Table 2, Indaziflam 35 g/ha): 5% | Obs % visual injury ([7]; Table 2, Indaziflam 35 g/ha): 0% | Obs % visual injury ([8]; Table 2, Indaziflam 35 g/ha): 0% | Obs % visual injury ([9]; Table 2, Indaziflam 35 g/ha): 10% | Obs % visual injury (Kochia scoparia (kochia); Table 2, Indaziflam 35 g/ha): 40% | Obs % visual injury (Kochia scoparia (kochia); Table 3, Indaziflam 35 g/ha): 28% | Obs % visual injury (Kochia scoparia (kochia); Table 3, Indaziflam 70 g/ha): 30% | Obs % visual injury [10]: 0% | Obs % visual injury ([11]; Table 3, Indaziflam 35 g/ha): 13% | Obs % visual injury ([11]; Table 3, Indaziflam 70 g/ha): 38% | Obs % visual injury ([12]; Table 2, Indaziflam 35 g/ha): 10% | Obs % visual injury ([12]; Table 3, Indaziflam 35 g/ha): 10% | Obs % visual injury ([12]; Table 3, Indaziflam 70 g/ha): 13% | Obs % visual injury ([13]; Table 3, Indaziflam 35 g/ha): 55% | Obs % visual injury ([13]; Table 3, Indaziflam 70 g/ha): 60% | Obs % visual injury ([14]; Table 2, Indaziflam 35 g/ha): 0% | Obs % visual injury ([15]; Table 2, Indaziflam 35 g/ha): 5%

CCC(C)(CC)c1cc(NC(=O)c2c(OC)cccc2OC)on1 [Isoxaben, isoxaben, reference compound]
Obs % visual injury ([1]; Table 1, Isoxaben 50 g/ha): 5% | Obs % visual injury ([2]; Table 1, Isoxaben 50 g/ha): 10% | Obs % visual injury ([2]; Table 4, Isoxaben 50 g/ha): 20% | Obs % visual injury ([2]; Table 4, Isoxaben 100 g/ha): 10% | Obs % visual injury ([3]; Table 1, Isoxaben 50 g/ha): 55% | Obs % visual injury ([4]; Table 4, Isoxaben 50 g/ha): 53% | Obs % visual injury ([4]; Table 4, Isoxaben 100 g/ha): 60% | Obs % visual injury ([5]; Table 1, Isoxaben 50 g/ha): 0% | Obs % visual injury ([5]; Table 4, Isoxaben 50 g/ha): 0% | Obs % visual injury ([5]; Table 4, Isoxaben 100 g/ha): 0% | Obs % visual injury ([6]; Table 1, Isoxaben 50 g/ha): 8% | Obs % visual injury [16]: 0% | Obs % visual injury ([7]; Table 1, Isoxaben 50 g/ha): 0% | Obs % visual injury ([8]; Table 1, Isoxaben 50 g/ha): 5% | Obs % visual injury [17]: 15% | Obs % visual injury (Glycine max (soybean)): 0% | Obs % visual injury [18]: 18% | Obs % visual injury ([9]; Table 1, Isoxaben 50 g/ha): 3% | Obs % visual injury (Kochia scoparia (kochia); Table 1, Isoxaben 50 g/ha): 13% | Obs % visual injury (Kochia scoparia (kochia); Table 4, Isoxaben 50 g/ha): 5% | Obs % visual injury (Kochia scoparia (kochia); Table 4, Isoxaben 100 g/ha): 5% | Obs % visual injury ([11]; Table 4, Isoxaben 50 g/ha): 15% | Obs % visual injury ([11]; Table 4, Isoxaben 100 g/ha): 15% | Obs % visual injury [19]: 0% | Obs % visual injury ([12]; Table 1, Isoxaben 50 g/ha): 0% | Obs % visual injury ([12]; Table 4, Isoxaben 50 g/ha): 0% | Obs % visual injury ([12]; Table 4, Isoxaben 100 g/ha): 0% | Obs % visual injury [20]: 0% | Obs % visual injury ([13]; Table 4, Isoxaben 50 g/ha): 0% | Obs % visual injury ([13]; Table 4, Isoxaben 100 g/ha): 5% | Obs % visual injury ([14]; Table 1, Isoxaben 50 g/ha): 5% | Obs % visual injury [21]: 8% | Obs % visual injury [22]: 0% | Obs % visual injury ([15]; Table 1, Isoxaben 50 g/ha): 0%

From patent publication US20220000110A1, “COMPOSITIONS COMPRISING PYRIDINE CARBOXYLATE HERBICIDES AND CELLULOSE BIOSYNTHESIS INHIBITOR HERBICIDES” (priority 2018, published 2022)
